Measurements from patent US20150105252A1, “SUBSTITUTED PYRAZOLES AS HERBICIDES” (E I DU PONT DE NEMOURS AND COMPANY, priority 2013, published 2015).

Columns and labels:
corn = experiment: Test A preemergence; type: in vivo, Zea mays; conditions: preemergence
Summary of the method: (§1)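 Growth medium: loam soil blended with sand. Preemergence treatment used a directed soil spray right after planting; postemergence treatment targeted seedlings at one to two leaves (2–10 cm height). Response was judged by eye relative to untreated plants about 10 days later on a 0–100 control scale.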

johnsongrass = experiment: Test C postemergence; type: in vivo, Sorghum halepense; conditions: for Plant response rating (scale of 0 to 100 where 0 is no effect and 100 is complete control), Johnsongrass: Postemergence, 31 g ai/ha, visually evaluated after 13 to 15 days; for Johnsongrass plant response rating / Plant response rating, Johnsongrass: postemergence; for Johnsongrass plant response rating: 62 g ai/ha, scale 0 to 100
Summary of the method: (§2)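 Visual rating, 0–100 scale (0 no effect, 100 complete control), vs untreated controls after 13–15 d greenhouse. Pre: seeds in loam/sand, treated at sowing. Post: plants in peat-based mix, 1- to 4-leaf (2–18 cm). Solvent + surfactant formulation, non-phytotoxic.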

wheat [1] = experiment: Test C preemergence; type: in vivo, Triticum aestivum
Summary of the method: as §2

velvetleaf [2] = experiment: Test A postemergence; type: in vivo, Abutilon theophrasti
Summary of the method: as §1

sedge, umbrella = experiment: Test B flood; type: in vivo, Cyperus difformis; conditions: 250 g ai/ha, visual rating on 0 to 100 scale (0 no effect, 100 complete control), 13 to 15 days
Summary of the method: (§3)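 Two-leaf-stage plants, pots flooded (3 cm above soil) and treated through the water, which stayed at that depth. After 13–15 days in greenhouse conditions, visual assessment versus controls: 0 is no effect, 100 complete control, dash means no result.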

velvetleaf [3] = experiment: Test C postemergence; type: in vivo, Abutilon theophrasti; conditions: for Velvetleaf plant response rating / Plant response rating, Velvetleaf: postemergence; for Velvetleaf plant response rating: scale 0 to 100
Summary of the method: as §2

foxtail, giant = experiment: Test A preemergence; type: in vivo, Setaria faberii; conditions: preemergence
Summary of the method: as §1

wheat [4] = experiment: Test C postemergence; type: in vivo, Triticum aestivum; conditions: for Wheat plant response rating / Plant response rating, Wheat: postemergence; for Wheat plant response rating: scale 0 to 100
Summary of the method: as §2

velvetleaf [5] = experiment: Test A preemergence; type: in vivo, Abutilon theophrasti; conditions: preemergence
Summary of the method: as §1

velvetleaf [6] = experiment: Test C preemergence; type: in vivo, Abutilon theophrasti
Summary of the method: as §2

lambsquarters = experiment: Test C postemergence; type: in vivo, Chenopodium album; conditions: for Plant response rating (scale of 0 to 100 where 0 is no effect and 100 is complete control), Lambsquarters: Postemergence, 31 g ai/ha, visually evaluated after 13 to 15 days; for Lambsquarters plant response rating / Plant response rating, Lambsquarters: postemergence; for Lambsquarters plant response rating: 62 g ai/ha, scale 0 to 100
Summary of the method: as §2

crabgrass, large = experiment: Test C preemergence; type: in vivo, Digitaria sanguinalis
Summary of the method: as §2

waterhemp = experiment: Test C postemergence; type: in vivo, Amaranthus rudis; conditions: for Waterhemp plant response rating / Plant response rating, Waterhemp: postemergence; for Waterhemp plant response rating: scale 0 to 100
Summary of the method: as §2

pigweed = experiment: Test A postemergence; type: in vivo, Amaranthus retroflexus
Summary of the method: as §1

rice = experiment: Test B flood; type: in vivo, Oryza sativa; conditions: 250 g ai/ha, visual rating on 0 to 100 scale (0 no effect, 100 complete control), 13 to 15 days
Summary of the method: as §3

[7] = 125 g ai/ha, visual injury, 0 to 100 scale, approx. 10 days
[8] = 500 g ai/ha, visual injury after approx. 10 days, 0 to 100 scale (0 no effect, 100 complete control)
[9] = 250 g ai/ha, scale 0 to 100 (0 no effect, 100 complete control)
[10] = 125 g ai/ha, scale 0 to 100, 0 no effect, 100 complete control
[11] = preemergence, 31 g ai/ha, visual rating, scale 0 to 100 (0 no effect, 100 complete control), 13 to 15 days
[12] = preemergence, 62 g ai/ha, scale 0 to 100 (0 no effect, 100 complete control), 13 to 15 days
[13] = preemergence, 125 g ai/ha, scale 0 to 100, 0 is no effect, 100 is complete control
[14] = Postemergence, 500 g ai/ha, visual rating after approx. 10 days, 0 to 100 scale (0 no effect, 100 complete control)
[15] = postemergence, 125 g ai/ha, about 10 days, visual rating on 0 to 100 scale (0 no effect, 100 complete control)
[16] = Postemergence, 31 g ai/ha, visually evaluated after 13 to 15 days
[17] = 125 g ai/ha, visual injury approx. 10 days after treatment
[18] = preemergence, 125 g ai/ha, 13 to 15 days, scale 0 to 100, 0 = no effect, 100 = complete control
[19] = preemergence, 250 g ai/ha, scale 0 to 100, 0 is no effect, 100 is complete control
[20] = Postemergence, 125 g ai/ha, 0 to 100 scale, 0 no effect, 100 complete control
[21] = Postemergence, 500 g ai/ha, 0 to 100 scale (0 no effect, 100 complete control)

CCCNC(=O)c1cc(CC)n(Cc2nc(C(F)(F)F)nn2C)n1 [Compound 109]
Corn plant response rating (corn; [7]): 60
Corn plant response rating (corn; [8]): 80
Plant response rating (scale of 0 to 100 where 0 is no effect and 100 is complete control), Johnsongrass (johnsongrass): 5
Johnsongrass plant response rating (johnsongrass): 5
Plant response rating, Johnsongrass (johnsongrass; [9]): 10
Plant response rating, Johnsongrass (johnsongrass; [10]): 5
Plant response rating (scale of 0 to 100), Wheat (wheat [1]; Preemergence, 250 g ai/ha): 85
Wheat plant response rating (wheat [1]; [11]): 0
Wheat plant response rating (wheat [1]; [12]): 15
Wheat plant response rating (wheat [1]; [13]): 85
Velvetleaf plant response rating (velvetleaf [2]; [14]): 90
Velvetleaf plant response rating (velvetleaf [2]; [15]): 60
Plant response rating, Sedge, Umbrella (sedge, umbrella): 0
Plant response rating (scale of 0 to 100 where 0 is no effect and 100 is complete control), Velvetleaf (velvetleaf [3]; [16]): 10
Velvetleaf plant response rating (velvetleaf [3]; 62 g ai/ha): 15
Plant response rating, Velvetleaf (velvetleaf [3]; [9]): 35
Plant response rating, Velvetleaf (velvetleaf [3]; [10]): 25
Foxtail, Giant plant response rating (foxtail, giant; [7]): 100
Foxtail, Giant plant response rating (foxtail, giant; [8]): 100
Plant response rating (scale of 0 to 100 where 0 is no effect and 100 is complete control), Wheat (wheat [4]; [16]): 0
Wheat plant response rating (wheat [4]; 62 g ai/ha): 0
Plant response rating, Wheat (wheat [4]; [9]): 0
Plant response rating, Wheat (wheat [4]; [10]): 0
Velvetleaf plant response rating (velvetleaf [5]; [7]): 70
Velvetleaf plant response rating (velvetleaf [5]; [8]): 100
Plant response rating (scale of 0 to 100), Velvetleaf (velvetleaf [6]; Preemergence, 250 g ai/ha): 100
Velvetleaf plant response rating (velvetleaf [6]; [11]): 10
Velvetleaf plant response rating (velvetleaf [6]; [12]): 80
Velvetleaf plant response rating (velvetleaf [6]; [13]): 100
Plant response rating (scale of 0 to 100 where 0 is no effect and 100 is complete control), Lambsquarters (lambsquarters): 45
Lambsquarters plant response rating (lambsquarters): 45
Plant response rating, Lambsquarters (lambsquarters; [9]): 85
Plant response rating, Lambsquarters (lambsquarters; [10]): 65
Plant response rating (scale of 0 to 100), Crabgrass, Large (crabgrass, large; Preemergence, 250 g ai/ha): 100
Crabgrass, Large plant response rating (crabgrass, large; [11]): 90
Crabgrass, Large plant response rating (crabgrass, large; [12]): 100
Crabgrass, Large plant response rating (crabgrass, large; [13]): 100
Plant response rating (scale of 0 to 100 where 0 is no effect and 100 is complete control), Waterhemp (waterhemp; [16]): 35
Waterhemp plant response rating (waterhemp; 62 g ai/ha): 35
Plant response rating, Waterhemp (waterhemp; [9]): 75
Plant response rating, Waterhemp (waterhemp; [10]): 60
Pigweed plant response rating (pigweed; [14]): 90
Pigweed plant response rating (pigweed; [15]): 90
Plant response rating, Rice (rice): 0

CCCc1cc(C(=O)NC2CC2)nn1Cc1cc(C(F)(F)F)nn1C [Compound 202]
Corn plant response rating (0 to 100 scale) (corn; [17]): 10
Corn plant response rating (corn; [8]): 40
Plant response rating (scale of 0 to 100 where 0 is no effect and 100 is complete control), Johnsongrass (johnsongrass): 0
Johnsongrass plant response rating (johnsongrass): 5
Plant response rating, Johnsongrass (johnsongrass; [9]): 25
Plant response rating, Johnsongrass (johnsongrass; [10]): 5
Wheat plant response rating (wheat [1]; [11]): 0
Wheat plant response rating (wheat [1]; [12]): 85
Plant response rating, Wheat (wheat [1]; [18]): 85
Wheat plant response rating (wheat [1]; [19]): 90
Velvetleaf plant response rating (velvetleaf [2]; [20]): 70
Velvetleaf plant response rating (velvetleaf [2]; [21]): 90
Plant response rating, Sedge, Umbrella (sedge, umbrella): 80
Plant response rating, Velvetleaf (velvetleaf [3]; [9]): 65
Velvetleaf plant response rating (velvetleaf [3]): 40
Foxtail, Giant plant response rating (0 to 100 scale) (foxtail, giant; [17]): 100
Foxtail, Giant plant response rating (foxtail, giant; [8]): 100
Plant response rating, Wheat (wheat [4]; [9]): 5
Wheat plant response rating (wheat [4]): 5
Velvetleaf plant response rating (0 to 100 scale) (velvetleaf [5]; [17]): 30
Velvetleaf plant response rating (velvetleaf [5]; [8]): 100
Velvetleaf plant response rating (velvetleaf [6]; [11]): 60
Velvetleaf plant response rating (velvetleaf [6]; [12]): 100
Plant response rating, Velvetleaf (velvetleaf [6]; [18]): 100
Velvetleaf plant response rating (velvetleaf [6]; [19]): 100
Plant response rating (scale of 0 to 100 where 0 is no effect and 100 is complete control), Lambsquarters (lambsquarters): 70
Lambsquarters plant response rating (lambsquarters): 80
Plant response rating, Lambsquarters (lambsquarters; [9]): 90
Plant response rating, Lambsquarters (lambsquarters; [10]): 85
Crabgrass, Large plant response rating (crabgrass, large; [11]): 100
Crabgrass, Large plant response rating (crabgrass, large; [12]): 100
Plant response rating, Crabgrass, Large (crabgrass, large; [18]): 100
Crabgrass, Large plant response rating (crabgrass, large; [19]): 100
Plant response rating, Waterhemp (waterhemp; [9]): 90
Waterhemp plant response rating (waterhemp): 85
Pigweed plant response rating (pigweed; [20]): 100
Pigweed plant response rating (pigweed; [21]): 100
Plant response rating, Rice (rice): 30
